Data from patent US7247617B2, “Sixteen-member macrolide antiinfective agents” (Kosan Biosciences Incorporated, priority 2004, dated 2007).

Columns and labels:
S. aureus = experiment: Biological activity against bacterial strains: S. aureus; format: cell-based, Staphylococcus aureus; parameters: unit not given here; settings: for Biological Activity, S. aureus ATCC6538p: strain ATCC6538p; for Biological Activity, S. aureus ATCC14154*: strain ATCC14154, macrolide resistant strain; for Biological Activity, S. aureus ATCC29213: strain ATCC29213; for Biological Activity, S. aureus ATCC33591*: strain ATCC33591, macrolide resistant strain; for Biological Activity, S. aureus ATCCBAA-39*: strain ATCCBAA-39, macrolide resistant strain; for Biological Activity, S. aureus ATCCBAA-44*: strain ATCCBAA-44, macrolide resistant strain
E. faecalis = experiment: Biological activity against bacterial strains: E. faecalis; format: cell-based, Enterococcus faecalis; settings: strain ATCC51575
S. pneumoniae = experiment: Biological activity against bacterial strains: S. pneumoniae; format: cell-based, Streptococcus pneumoniae; parameters: Biological Activity, S. pneumoniae ATCC6301 / Biological Activity, S. pneumoniae ATCC700671 / Biological Activity, S. pneumoniae ATCC700676* / Biological Activity, S. pneumoniae ATCC700677* / Biological Activity, S. pneumoniae ATCC700905* / Biological Activity, S. pneumoniae ATCC700906* / Biological Activity, S. pneumoniae ATCC49619: unit not given here; settings: for Biological Activity, S. pneumoniae ATCC6301: strain ATCC6301; for Biological Activity, S. pneumoniae ATCC49619: strain ATCC49619; for Biological Activity, S. pneumoniae ATCC700671: strain ATCC700671; for Biological Activity, S. pneumoniae ATCC700676*: strain ATCC700676, macrolide resistant strain; for Biological Activity, S. pneumoniae ATCC700677*: strain ATCC700677, macrolide resistant strain; for Biological Activity, S. pneumoniae ATCC700905*: strain ATCC700905, macrolide resistant strain; for Biological Activity, S. pneumoniae ATCC700906*: strain ATCC700906, macrolide resistant strain
S. epidermidis = experiment: Biological activity against bacterial strains: S. epidermidis; format: cell-based, Staphylococcus epidermidis; settings: strain ATCC12228
Haemophilus Influenzae = experiment: H. influenzae Activity; format: cell-based; settings: for potency against H. influenzae (in words): compared to compound A, OMT and Ketek

Compound | Biological Activity, S. aureus ATCC6538p (S. aureus) | Biological Activity, S. aureus ATCC14154* (S. aureus) | Biological Activity, S. aureus ATCC29213 (S. aureus) | Biological Activity, S. aureus ATCC33591* (S. aureus) | Biological Activity, S. aureus ATCCBAA-39* (S. aureus) | Biological Activity, S. aureus ATCCBAA-44* (S. aureus) | Biological Activity, E. faecalis ATCC51575 (E. faecalis) | Biological Activity, S. pneumoniae ATCC6301 (S. pneumoniae) | Biological Activity, S. pneumoniae ATCC49619 (S. pneumoniae) | Biological Activity, S. pneumoniae ATCC700671 (S. pneumoniae) | Biological Activity, S. pneumoniae ATCC700676* (S. pneumoniae) | Biological Activity, S. pneumoniae ATCC700677* (S. pneumoniae) | Biological Activity, S. pneumoniae ATCC700905* (S. pneumoniae) | Biological Activity, S. pneumoniae ATCC700906* (S. pneumoniae) | Biological Activity, S. epidermidis ATCC12228 (S. epidermidis) | H. influenzae Activity, strain ATCC9006 (Haemophilus Influenzae) | H. influenzae Activity, strain ATCC49766 (Haemophilus Influenzae) | H. influenzae Activity, strain EH001 (Haemophilus Influenzae) | H. influenzae Activity, strain EH002 (Haemophilus Influenzae) | H. influenzae Activity, strain EH003 (Haemophilus Influenzae) | further results
CCC1OC(=O)CC(O)C(C)C(OC2OC(C)C(O)C(N(C)C)C2O)C(CC=O)CC(C)C(=NOCCCOc2ccc3ncccc3c2)C=CC(C)=CC1COC1OC(C)C(O)C(OC)C1OC (single isomer, unassigned) [Compound AA] | 0.39 | 0.78 | 0.78 | >12.5 | >12.5 | >12.5 | >12.5 | 0.025 | 6.25 | >12.5 | 0.049 | 6.25 | 6.25 | >12.5 | 0.78 | – | – | – | – | – | –
CCC1OC(=O)CC(O)C(C)C(OC2OC(C)C(O)C(N(C)C)C2O)C(CC=O)CC(C)C(=NOCCCOc2ccc3ncccc3c2)C=CC(C)=CC1COC1OC(C)C(O)C(OC)C1OC (single isomer, unassigned) [Compound BB] | 0.2 | 0.78 | 0.39 | >12.5 | >12.5 | >12.5 | >12.5 | 0.025 | 0.049 | 0.049 | 0.049 | 0.025 | 0.025 | >12.5 | 0.39 | – | – | – | – | – | –
CCC1OC(=O)CC(O)C(C)C(OC2OC(C)C(O)C(N(C)C)C2O)C(CC=O)CC(C)C(=NOCC#Cc2cnc3ccccc3c2)C=CC(C)=CC1CO (single isomer, unassigned) [Compound D] | 0.098 | 0.78 | 0.39 | >12.5 | >12.5 | >12.5 | >12.5 | 0.025 | 0.049 | 0.049 | 0.049 | >12.5 | 0.049 | >12.5 | 0.20 | – | – | – | – | – | –
CCC1OC(=O)CC(O)C(C)C(OC2OC(C)C(O)C(N(C)C)C2O)C(CC=O)CC(C)C(=NOCC=Cc2cnc3ccccc3c2)C=CC(C)=CC1CO (single isomer, unassigned) [Compound F] | 0.098 | 0.39 | 0.39 | >12.5 | >12.5 | >12.5 | >12.5 | 0.025 | 0.025 | 0.049 | 0.049 | >12.5 | 0.049 | >12.5 | 0.049 | – | – | – | – | – | –
CCC1OC(=O)CC(O)C(C)C(OC2OC(C)C(O)C(N(C)C)C2O)C(CC=O)CC(C)C(=NOCC=Cc2cnc3ccccc3c2)C=CC(C)=CC1CO (single isomer, unassigned) [Compound G] | 0.20 | 0.78 | 0.78 | >12.5 | >12.5 | >12.5 | >12.5 | 0.025 | 0.025 | 0.025 | 0.049 | >12.5 | 0.049 | >12.5 | 0.39 | – | – | – | – | – | –
CCC1OC(=O)CC(O)C(C)C(OC2OC(C)C(O)C(N(C)C)C2O)C(CCN2CC(C)CC(C)C2)CC(C)C(=NOCCCOc2ccc3ncccc3c2)C=CC(C)=CC1COC1OC(C)C(O)C(OC)C1OC (single isomer, unassigned) [Compound K] | 0.20 | 0.39 | 0.39 | >12.5 | >12.5 | >12.5 | >12.5 | 0.01 | 0.098 | 0.025 | 0.049 | 0.049 | 0.20 | >12.5 | 0.39 | – | – | – | – | – | –
CCC1OC(=O)CC(O)C(C)C(OC2OC(C)C(O)C(N(C)C)C2O)C(CC=O)CC(C)C(=NOCCCOc2ccc3ncccc3c2)C=CC(C)=CC1CN(C)C (single isomer, unassigned) [Compound Y] | – | – | – | – | – | – | – | 0.025 | 0.025 | 0.098 | 0.025 | >12.5 | 0.025 | >12.5 | – | 1.56 | 3.12 | 3.12 | 6.25 | 3.12 | potency against H. influenzae (in words) (Haemophilus Influenzae): improved potency against H. influenzae, to a level similar to OMT and Ketek™; activity / potency against S. pneumoniae (in words) (S. pneumoniae): essentially remained unchanged
CCC1OC(=O)CC(O)C(C)C(OC2OC(C)C(O)C(N(C)C)C2O)C(CC=O)CC(C)C(=NOCCCOc2ccc3ncccc3c2)C=CC(C)=CC1CN(C)C (single isomer, unassigned) [Compound Z] | – | – | – | – | – | – | – | 0.025 | 0.049 | 0.049 | 0.025 | >12.5 | 0.025 | >12.5 | – | 1.56 | 3.12 | 3.12 | 3.12 | 1.56 | potency against H. influenzae (in words) (Haemophilus Influenzae): improved potency against H. influenzae, to a level similar to OMT and Ketek™; activity / potency against S. pneumoniae (in words) (S. pneumoniae): essentially remained unchanged
CC[C@H]1OC(=O)[C@H](C)[C@@H](O[C@H]2C[C@@](C)(OC)[C@@H](O)[C@H](C)O2)[C@H](C)[C@@H](O[C@@H]2O[C@H](C)C[C@H](N(C)C)[C@H]2O)[C@](C)(O)C[C@@H](C)C(=O)[C@H](C)[C@@H](O)[C@]1(C)O [Ery A, erythromycin A, reference compound] | 0.098 | – | 0.20 | – | – | – | – | 0.025 | 0.049 | 0.049 | 6.25 | 6.25 | 3.12 | – | 0.20 | 1.56 | 6.25 | 3.12 | 6.25 | 3.12 | –
CC[C@H]1OC(=O)[C@H](C)C(=O)[C@H](C)[C@@H](O[C@@H]2O[C@H](C)C[C@H](N(C)C)[C@H]2O)[C@](C)(OC)C[C@@H](C)C(=O)[C@H](C)[C@H]2N(CCCCn3cnc(-c4cccnc4)c3)C(=O)O[C@]12C [Ketek, telithromycin, reference compound] | – | – | – | – | – | – | – | – | – | – | – | – | – | – | – | 1.56 | 3.12 | 1.56 | 6.25 | 1.56 | –
